Test results as given in patent US20260262643A1, “HERBICIDAL BENZOXAZINES” (FMC CORPORATION, priority 2022, published 2026).

Assays:
barnyardgrass [1] = assay: Test C preemergence; type: in vivo, Echinochloa crusgalli
Procedure, shortened: (§1)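 Test material, in non-phytotoxic solvent with surfactant, was sprayed on the soil directly after seeding (preemergence) or on young plants of 2–10 cm with one to two leaves (postemergence). Greenhouse, 10 days; 0–100 visual control scale.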

blackgrass [2] = assay: Test C preemergence; type: in vivo, Alopecurus myosuroides
Procedure, shortened: as §1

corn [3] = assay: Test C preemergence; type: in vivo, Zea mays
Procedure, shortened: as §1

foxtail, giant [4] = assay: Test C preemergence; type: in vivo, Setaria faberi
Source text: (§2) Seeds of plant species selected from barnyardgrass (Echinochloa crusgalli), blackgrass (Alopecurus myosuroides), corn (Zea mays), foxtail, giant (giant foxtail, Setaria faberi), green foxtail (Setaria viridis), goosegrass (Eleusine indica), kochia (Bassia scoparia), oat, wild (wild oat, Avena fatua), pigweed, palmer (palmer amaranth, palmer pigweed, Amaranthus palmeri), Pigweed, Redroot (redroot pigweed, Amaranthus retroflexus), ragweed (common ragweed, Ambrosia artemisiifolia), ryegrass, Italian ([…] ryegrass, Lolium multiflorum), soybean (Glycine max), and wheat (Triticum aestivum) were planted into a blend of loam soil and sand and treated preemergence with a directed soil spray using test chemicals formulated in a non-phytotoxic solvent mixture which included a surfactant. At the same time, plants selected from these crops and weed species and also galium (catchweed bedstraw, Galium aparine) and horseweed (Erigeron canadensis) were planted in pots containing the same blend of loam soil and sand and treated with postemergence applications of test chemicals formulated in the same manner. Plants ranged in height from 2 to 10 cm and were in the one- to two-leaf stage for the postemergence treatment. Treated plants and untreated controls were maintained in a greenhouse for 10 days, after which time all treated plants were compared to untreated controls and visually evaluated for injury. Plant response ratings, summarized in Table C, are based on a 0 to 100 scale where 0 is no effect and 100 is complete control. A dash (-) response means no test result.

kochia [5] = assay: Test C preemergence; type: in vivo, Bassia scoparia
Procedure, shortened: as §1

oat, wild [6] = assay: Test C preemergence; type: in vivo, Avena fatua
Procedure, shortened: as §1

pigweed, palmer [7] = assay: Test C preemergence; type: in vivo, Amaranthus palmeri
Procedure, shortened: as §1

ragweed [8] = assay: Test C preemergence; type: in vivo, Ambrosia artemisiifolia
Procedure, shortened: as §1

ryegrass, Italian [9] = assay: Test C preemergence; type: in vivo, Lolium multiflorum
Procedure, shortened: as §1

soybean [10] = assay: Test C preemergence; type: in vivo, Glycine max
Procedure, shortened: as §1

wheat [11] = assay: Test C preemergence; type: in vivo, Triticum aestivum
Procedure, shortened: as §1

barnyardgrass [12] = assay: Test C postemergence; type: in vivo, Echinochloa crusgalli; conditions: 10 days, 0 to 100 scale (0 no effect, 100 complete control)
Procedure, shortened: as §1

blackgrass [13] = assay: Test C postemergence; type: in vivo, Alopecurus myosuroides; conditions: 10 days, 0 to 100 scale (0 no effect, 100 complete control)
Procedure, shortened: as §1

corn [14] = assay: Test C postemergence; type: in vivo, Zea mays; conditions: 10 days, 0 to 100 scale (0 no effect, 100 complete control)
Procedure, shortened: as §1

foxtail, giant [15] = assay: Test C postemergence; type: in vivo, Setaria faberi; conditions: 10 days, 0 to 100 scale (0 no effect, 100 complete control)
Source text: as §2

kochia [16] = assay: Test C postemergence; type: in vivo, Bassia scoparia; conditions: 10 days, 0 to 100 scale (0 no effect, 100 complete control)
Procedure, shortened: as §1

oat, wild [17] = assay: Test C postemergence; type: in vivo, Avena fatua; conditions: 10 days, 0 to 100 scale (0 no effect, 100 complete control)
Procedure, shortened: as §1

pigweed, palmer [18] = assay: Test C postemergence; type: in vivo, Amaranthus palmeri; conditions: 10 days, 0 to 100 scale (0 no effect, 100 complete control)
Procedure, shortened: as §1

ragweed [19] = assay: Test C postemergence; type: in vivo, Ambrosia artemisiifolia; conditions: 10 days, 0 to 100 scale (0 no effect, 100 complete control)
Procedure, shortened: as §1

ryegrass, Italian [20] = assay: Test C postemergence; type: in vivo, Lolium multiflorum; conditions: 10 days, 0 to 100 scale (0 no effect, 100 complete control)
Procedure, shortened: as §1

soybean [21] = assay: Test C postemergence; type: in vivo, Glycine max; conditions: 10 days, 0 to 100 scale (0 no effect, 100 complete control)
Procedure, shortened: as §1

wheat [22] = assay: Test C postemergence; type: in vivo, Triticum aestivum; conditions: 10 days, 0 to 100 scale (0 no effect, 100 complete control)
Procedure, shortened: as §1

galium = assay: Test C postemergence; type: in vivo, Galium aparine; conditions: 10 days, 0 to 100 scale (0 no effect, 100 complete control)
Procedure, shortened: as §1

horseweed = assay: Test C postemergence; type: in vivo, Erigeron canadensis; conditions: 10 days, 0 to 100 scale (0 no effect, 100 complete control)
Procedure, shortened: as §1

barnyardgrass [23] = assay: Test D flooded paddy test; type: in vivo, Echinochloa crus-galli; conditions: 250 g ai/ha, applied to paddy water, visual rating after 13 to 14 days, scale 0 to 100 (0 no effect, 100 complete control)
Procedure, shortened: (§3)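 Visual ratings from 0, meaning no effect, to 100, meaning complete control, were assigned against untreated controls 13 to 14 days after compounds were added to the floodwater of pots kept 3 cm deep, with plants at the 2-leaf stage.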

ducksalad = assay: Test D flooded paddy test; type: in vivo, Heteranthera limosa; conditions: 250 g ai/ha, applied to paddy water, visual rating after 13 to 14 days, scale 0 to 100 (0 no effect, 100 complete control)
Procedure, shortened: as §3

rice = assay: Test D flooded paddy test; type: in vivo, Oryza sativa; conditions: 250 g ai/ha, applied to paddy water, visual rating after 13 to 14 days, scale 0 to 100 (0 no effect, 100 complete control)
Procedure, shortened: as §3

sedge, umbrella = assay: Test D flooded paddy test; type: in vivo, Cyperus difformis; conditions: 250 g ai/ha, applied to paddy water, visual rating after 13 to 14 days, scale 0 to 100 (0 no effect, 100 complete control)
Procedure, shortened: as §3

[24] = 500 g ai/ha, preemergence, 0 to 100 scale (0 no effect, 100 complete control)
[25] = Preemergence, 125 g ai/ha, 0 to 100 scale, 0 no effect, 100 complete control

CCc1ncn(-c2cccc(C(=O)N3CC(C(F)(F)F)Oc4c(C)cccc43)c2)n1 (stereo not shown) [Compound 344]
Barnyardgrass plant response rating (barnyardgrass [1]; [24]): 100 | Plant response rating, Barnyardgrass (barnyardgrass [1]; [25]): 80 | Blackgrass plant response rating (blackgrass [2]; [24]): 100 | Plant response rating, Blackgrass (blackgrass [2]; [25]): 90 | Corn plant response rating (corn [3]; [24]): 30 | Plant response rating, Corn (corn [3]; [25]): 20 | Foxtail, Giant plant response rating (foxtail, giant [4]; [24]): 100 | Plant response rating, Foxtail, Giant (foxtail, giant [4]; [25]): 100 | Kochia plant response rating (kochia [5]; [24]): 100 | Plant response rating, Kochia (kochia [5]; [25]): 60 | Oat, Wild plant response rating (oat, wild [6]; [24]): 90 | Plant response rating, Oat, Wild (oat, wild [6]; [25]): 0 | Pigweed, Palmer plant response rating (pigweed, palmer [7]; [24]): 100 | Plant response rating, Pigweed, Palmer (pigweed, palmer [7]; [25]): 90 | Ragweed plant response rating (ragweed [8]; [24]): 50 | Plant response rating, Ragweed (ragweed [8]; [25]): 0 | Ryegrass, Italian plant response rating (ryegrass, Italian [9]; [24]): 100 | Plant response rating, Ryegrass, Italian (ryegrass, Italian [9]; [25]): 90 | Soybean plant response rating (soybean [10]; [24]): 50 | Plant response rating, Soybean (soybean [10]; [25]): 0 | Wheat plant response rating (wheat [11]; [24]): 80 | Plant response rating, Wheat (wheat [11]; [25]): 40 | Plant response rating, Barnyardgrass (barnyardgrass [12]; 500 g ai/ha, postemergence): 70 | Plant response rating, Barnyardgrass (barnyardgrass [12]; Postemergence, 125 g ai/ha): 40 | Plant response rating, Blackgrass (blackgrass [13]; 500 g ai/ha, postemergence): 90 | Plant response rating, Blackgrass (blackgrass [13]; Postemergence, 125 g ai/ha): 80 | Plant response rating, Corn (corn [14]; 500 g ai/ha, postemergence): 90 | Plant response rating, Corn (corn [14]; Postemergence, 125 g ai/ha): 30 | Plant response rating, Foxtail, Giant (foxtail, giant [15]; 500 g ai/ha, postemergence): 90 | Plant response rating, Foxtail, Giant (foxtail, giant [15]; Postemergence, 125 g ai/ha): 70 | Plant response rating, Kochia (kochia [16]; 500 g ai/ha, postemergence): 80 | Plant response rating, Kochia (kochia [16]; Postemergence, 125 g ai/ha): 70 | Plant response rating, Oat, Wild (oat, wild [17]; 500 g ai/ha, postemergence): 90 | Plant response rating, Oat, Wild (oat, wild [17]; Postemergence, 125 g ai/ha): 60 | Plant response rating, Pigweed, Palmer (pigweed, palmer [18]; 500 g ai/ha, postemergence): 40 | Plant response rating, Pigweed, Palmer (pigweed, palmer [18]; Postemergence, 125 g ai/ha): 20 | Plant response rating, Ragweed (ragweed [19]; 500 g ai/ha, postemergence): 70 | Plant response rating, Ragweed (ragweed [19]; Postemergence, 125 g ai/ha): 70 | Plant response rating, Ryegrass, Italian (ryegrass, Italian [20]; 500 g ai/ha, postemergence): 100 | Plant response rating, Ryegrass, Italian (ryegrass, Italian [20]; Postemergence, 125 g ai/ha): 80 | Plant response rating, Soybean (soybean [21]; 500 g ai/ha, postemergence): 100 | Plant response rating, Soybean (soybean [21]; Postemergence, 125 g ai/ha): 80 | Plant response rating, Wheat (wheat [22]; 500 g ai/ha, postemergence): 80 | Plant response rating, Wheat (wheat [22]; Postemergence, 125 g ai/ha): 30 | Plant response rating, Galium (galium; 500 g ai/ha, postemergence): 100 | Plant response rating, Galium (galium; Postemergence, 125 g ai/ha): 90 | Plant response rating, Horseweed (horseweed; 500 g ai/ha, postemergence): 30 | Plant response rating, Horseweed (horseweed; Postemergence, 125 g ai/ha): 30 | Plant response rating, Barnyardgrass (Flood) (barnyardgrass [23]): 25 | Plant response rating, Ducksalad (Flood) (ducksalad): 30 | Plant response rating, Rice (Flood) (rice): 0 | Plant response rating, Sedge, Umbrella (Flood) (sedge, umbrella): 70
